Test results reported in ChEMBL document CHEMBL3882727, “Imidazopyridine Kinase Inhibitors” (2008).

What was measured:
[1] = biological target: T1, Insulin-like growth factor 1 receptor (Homo sapiens, UniProt P08069); experiment: Inhibition of human GST-rTEV-tagged IGF1R (957 to 1367 residues) expressed in baculovirus infected insect Sf9 cells assessed as decrease in biotin-aminohexyl-AEEEEYMMMMAKKKK-NH2 phosphorylation after 1 hr by fluorometer
Insulin receptor [2] = biological target: T2, Insulin receptor (Homo sapiens, UniProt P06213); experiment: Inhibition of human GST-rTEV-tagged insulin receptor (979 to 1382 residues) expressed in baculovirus infected insect Sf9 cells assessed as decrease in biotin-aminohexyl-AEEEEYMMMMAKKKK-NH2 phosphorylation after 1 hr by fluorometer
T2 sequence (P06213 28-758 limits assumed): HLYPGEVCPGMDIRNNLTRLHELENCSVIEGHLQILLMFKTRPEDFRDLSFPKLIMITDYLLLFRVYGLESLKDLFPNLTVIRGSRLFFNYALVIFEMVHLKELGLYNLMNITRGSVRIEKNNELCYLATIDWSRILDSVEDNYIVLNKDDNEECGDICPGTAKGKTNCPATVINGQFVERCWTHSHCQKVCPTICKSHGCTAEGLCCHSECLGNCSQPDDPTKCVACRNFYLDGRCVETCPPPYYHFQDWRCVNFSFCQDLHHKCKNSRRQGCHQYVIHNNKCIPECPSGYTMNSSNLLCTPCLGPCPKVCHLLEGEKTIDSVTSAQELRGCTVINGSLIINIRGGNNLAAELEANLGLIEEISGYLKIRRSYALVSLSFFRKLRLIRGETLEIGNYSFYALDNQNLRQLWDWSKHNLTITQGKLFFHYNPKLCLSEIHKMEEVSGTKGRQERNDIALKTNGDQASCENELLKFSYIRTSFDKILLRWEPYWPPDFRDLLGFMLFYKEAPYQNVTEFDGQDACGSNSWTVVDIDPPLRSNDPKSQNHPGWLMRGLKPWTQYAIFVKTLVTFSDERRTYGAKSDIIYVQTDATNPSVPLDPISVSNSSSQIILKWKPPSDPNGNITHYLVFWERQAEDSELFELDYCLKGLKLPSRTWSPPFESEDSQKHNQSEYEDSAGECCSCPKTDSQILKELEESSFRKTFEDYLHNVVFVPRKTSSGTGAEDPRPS
T2 sequence (P06213 763-1382 limits assumed): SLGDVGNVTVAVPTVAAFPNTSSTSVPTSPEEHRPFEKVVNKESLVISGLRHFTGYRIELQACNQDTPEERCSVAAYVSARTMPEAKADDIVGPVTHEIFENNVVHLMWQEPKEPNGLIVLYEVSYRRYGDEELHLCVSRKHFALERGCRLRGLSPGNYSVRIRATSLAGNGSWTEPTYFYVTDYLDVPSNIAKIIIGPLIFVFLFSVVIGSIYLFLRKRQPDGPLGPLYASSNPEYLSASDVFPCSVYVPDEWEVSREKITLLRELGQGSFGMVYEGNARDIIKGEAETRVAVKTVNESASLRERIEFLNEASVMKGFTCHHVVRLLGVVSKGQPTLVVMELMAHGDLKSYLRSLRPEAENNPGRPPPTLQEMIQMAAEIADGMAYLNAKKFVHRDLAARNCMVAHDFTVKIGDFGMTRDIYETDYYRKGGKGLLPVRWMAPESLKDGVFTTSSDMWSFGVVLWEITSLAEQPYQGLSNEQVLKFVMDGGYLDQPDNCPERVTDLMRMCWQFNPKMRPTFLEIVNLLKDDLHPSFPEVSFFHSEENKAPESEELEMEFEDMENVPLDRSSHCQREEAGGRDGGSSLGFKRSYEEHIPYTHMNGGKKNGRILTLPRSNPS

Insulin receptor [3] = biological target: T2, Insulin receptor; experiment: Inhibition of insulin-induced human insulin receptor autophosphorylation expressed in mouse NIH-3T3 cells preincubated for 2 hrs followed by insulin induction measured after 15 mins by DELFIA; type: cell-based, NIH3T3
[4] = biological target: T1, Insulin-like growth factor 1 receptor; experiment: Inhibition of IGF1-induced human IGF1R autophosphorylation expressed in mouse NIH-3T3 cells preincubated for 2 hrs followed by IGF-1 induction measured after 15 mins by DELFIA; type: cell-based, NIH3T3
[5] = Toxicity in nude mouse xenografted with human COLO205 cells assessed as body weight loss at 10 to 30 mg/kg, bid for 21 days measured during compound dosing; type: organism-based, COLO 205; conditions: in vivo, 504 h
[6] = Toxicity in nude mouse xenografted with human BT474 cells assessed as body weight loss at 15 mg/kg, bid for 3 weeks without dosing on weekends measured during compound dosing; type: organism-based, BT-474; conditions: in vivo, 504 h
[7] = Antitumor activity against human COLO205 cells xenografted in nude mouse assessed as tumor growth inhibition at 10 mg/kg, qd for 21 days relative to vehicle-treated control; type: functional; conditions: COLO 205, 504 h, read-out: TGI
[8] = Toxicity in nude mouse xenografted with human COLO205 cells assessed as body weight loss at 100 mg/kg, qd for 21 days measured within 10 days of compound dosing relative to vehicle-treated control; type: organism-based, COLO 205; conditions: in vivo
[9] = Toxicity in nude mouse allografted with mouse LISN cells assessed as body weight loss at 15 mg/kg, bid for 21 days measured during compound dosing; type: organism-based; conditions: in vivo, 504 h
[10] = Toxicity in nude mouse allografted with mouse LISN cells assessed as body weight loss at 30 mg/kg, qd for 21 days measured during compound dosing; type: organism-based; conditions: in vivo, 504 h
[11] = Growth inhibition of human MCF7 cells assessed as combination index in presence of lapatinib after 3 days by methylene blue staining-based assay; type: functional
[12] = Toxicity in nude mouse xenografted with human COLO205 cells assessed as body weight loss at 30 mg/kg, bid for 21 days measured within 10 days of compound dosing relative to vehicle-treated control; type: organism-based, COLO 205; conditions: in vivo
[13] = Toxicity in nude mouse allografted with mouse LISN cells assessed as body weight loss at 30 mg/kg, qd for every 3 days per week for 3 weeks measured during compound dosing; type: organism-based; conditions: in vivo
[14] = Growth inhibition of human A549 cells assessed as combination index in presence of lapatinib after 3 days by methylene blue staining-based assay; type: functional
[15] = Growth inhibition of human MDA-MB-468 cells assessed as combination index in presence of lapatinib after 3 days by methylene blue staining-based assay; type: functional
[16] = Growth inhibition of human MDA-MB-453 cells assessed as combination index in presence of lapatinib after 3 days by methylene blue staining-based assay; type: functional
[17] = Toxicity in nude mouse xenografted with human BT474 cells assessed as body weight loss at 15 to 60 mg/kg, qd for 3 weeks without dosing on weekends measured during compound dosing; type: organism-based, BT-474; conditions: in vivo, 504 h
[18] = Toxicity in nude mouse allografted with mouse LISN cells assessed as body weight loss at 30 to 300 mg/kg, qd for 21 days measured during compound dosing; type: organism-based; conditions: 504 h

COc1cc(N2CCC(N3CCN(CCS(C)(=O)=O)CC3)CC2)c(C)cc1Nc1nccc(-c2c(-c3cccc(C(=O)Nc4c(F)cccc4F)c3)nc3ccccn23)n1
IC50 [1]: < 0.1 µM
IC50 (Insulin receptor [2]): < 0.1 µM
IC50 (Insulin receptor [3]): < 0.1 µM

CCOc1cc(N2CCN(CCS(C)(=O)=O)CC2)c(C)cc1Nc1nccc(-c2c(-c3ccc(OC)c(C(=O)Nc4c(F)cccc4F)c3)nc3ccccn23)n1
IC50 [1]: < 0.1 µM
IC50 (Insulin receptor [2]): < 0.1 µM
IC50 (Insulin receptor [3]): < 0.1 µM

CCOc1cc(N2CCC(N3CCN(S(C)(=O)=O)CC3)CC2)c(CC)cc1Nc1nccc(-c2c(-c3ccc(OCC)c(C(=O)Nc4c(F)cccc4F)c3)nc3ccccn23)n1
IC50 [4]: < 0.1 µM
IC50 [1]: 0.1 to 1 µM
IC50 (Insulin receptor [2]): 0.1 to 1 µM

CCOc1ccc(-c2nc3ccccn3c2-c2ccnc(Nc3ccc(C4CCN(CCS(C)(=O)=O)CC4)cc3OC)n2)cc1C(=O)Nc1c(F)cccc1F
IC50 [1]: < 0.1 µM
IC50 (Insulin receptor [2]): < 0.1 µM
IC50 (Insulin receptor [3]): < 0.1 µM

COc1cc(N2CCC(N3CCCCC3)CC2)ccc1Nc1nccc(-c2c(-c3cccc(C(=O)Nc4c(F)cccc4F)c3)nc3cc(C(F)(F)F)ccn23)n1
IC50 [4]: 0.1 to 0.5 µM
IC50 [1]: < 0.1 µM
IC50 (Insulin receptor [2]): < 0.1 µM
IC50 (Insulin receptor [3]): > 0.5 µM

CCOc1cc(C2CCN(CCS(C)(=O)=O)CC2)ccc1Nc1nccc(-c2c(-c3ccc(OC)c(C(=O)Nc4c(F)cccc4F)c3)nc3ccccn23)n1
IC50 [1]: < 0.1 µM
IC50 (Insulin receptor [2]): < 0.1 µM
IC50 (Insulin receptor [3]): < 0.1 µM

COc1cc(N2CCC(N3CCN(CCF)CC3)CC2)ccc1Nc1nccc(-c2c(-c3cccc(C(=O)Nc4c(F)cccc4F)c3)nc3ccccn23)n1
Activity [5]: Non-Toxic
Activity [6]: Non-Toxic
inhibition in vivo at 10 mg/kg [7]: 42%
Activity [8]: > 20%
Activity [9]: Non-Toxic
Activity [10]: Non-Toxic
CI [11]: 1
Activity [12]: > 20%
Activity [13]: Toxic
CI [14]: <1
CI [15]: 0.78 - 1.25
CI [16]: 0.31
Activity [17]: Non-Toxic

COc1cc(C2CCN(CCS(C)(=O)=O)CC2)ccc1Nc1nccc(-c2c(-c3ccc(OC)c(C(=O)Nc4c(F)cccc4F)c3)nc3ccccn23)n1
IC50 [1]: < 0.1 µM
IC50 (Insulin receptor [2]): < 0.1 µM

COc1cc(N2CCC(CCS(C)(=O)=O)CC2)ccc1Nc1nccc(-c2c(-c3ccc(OC)c(C(=O)Nc4c(F)cccc4F)c3)nc3cc(F)ccn23)n1
IC50 [1]: < 0.1 µM
IC50 (Insulin receptor [2]): < 0.1 µM

COc1cc(N2CCC(N3CCN(S(C)(=O)=O)CC3)CC2)ccc1Nc1nccc(-c2c(-c3cccc(C(=O)Nc4c(F)cccc4F)c3)nc3ccccn23)n1
Activity [18]: Non-Toxic
